{"source": "patent US20050112071A1", "about": "“Hypoestoxides, derivatives, agonists and crude extracts thereof for use in cosmetic compositions” (PARAQUEST, INC., priority 2003, published 2005)", "test_system": "subjects with psoriasis", "test": "erythema resolution in psoriasis plaques after topical administration", "format": "in vivo, human", "settings": "0.5% by weight in cosmetic composition, topical twice daily for one week; two subjects, elbows; observed day 7", "method": "In another method, an effective amount of hypoestoxide crude extract, hypoestes rosea dried leaf powder or a compound of formula I, in a cosmetic composition or in isolation, is applied to the host's skin to alleviate psoriasis. In a preferred embodiment, 0.5% by weight of pure hypoestoxide in a cosmetic composition was applied to two subjects with psoriasis. Topical administration was performed twice daily for one week at the subjects' job sites. Subjects had crusted erythematous plaques on their elbows. The cosmetic composition consisted of the following ingredients: multi-fruit complex, cetearyl alcohol and ceteareth 20, glyceryl stearate, cetyl alcohol, tocopherol, vitamin A palmatate, allantoin, lanolin, ascorbic acid, botanical extract, xanthan gum, ceteth-20 and propylparaben. Erythema resolution was noted by observation of the subjects' plaques on day 7.", "data": [{"smiles": "C=C1C(=O)C[C@H]2C[C@@H]3O[C@@]3(C)CC[C@@H]3O[C@@]3(C)C[C@@H](OC(C)=O)[C@H]1C2(C)C", "note": "[hypoestoxide]", "values": [{"measurement": "Erythema resolution of crusted erythematous plaques", "result": "significant erythema resolution"}]}]}
